The source of these data is patent US9963660B2, “Method of cleaning with enhanced bacteriostatic action using a composition of alcohol and lactate esters” (Vertec Biosolvent, Inc., priority 2015, dated 2018).

For series [1] the following is noted: for Viscosity: @ 25 C. An excerpt:
Properties of solvents are often evaluated and expressed in measured and calculated values of solubility parameters and a few other physical constants.

Series [2] can be described thus: Peanut butter removal from coated metal mesh strips (cleaning/solvating action). To be noted: neat solvents, 40° C., 20 minutes dip, 90 minutes drying. The source says: Peanut butter is a complex mixture of fats, carbohydrates and proteins that are emulsified in processing equipment under controlled conditions. Because of its composition that contains all the major food groups and because the product is made by controlled food processing methods, peanut butter was chosen for an initial cleaning examination. Commercially available […]® peanut butter made by Best Foods Company was used. Commercially available metal screen mesh (size 20 mesh) was cut into small (25 mm×75 mm), equal sized strips that were dipped into heated (about 50° C.) peanut butter and then drip dried in air. […] The strips were then dried under forced air at room temperature and their weights were measured periodically. After 90 minutes of drying the test results were evaluated to determine the comparative differences between the effects of the solvent compositions. Commercial grade of ethanol is typically denatured by small quantities of additives. Ethyl acetate is an approved denaturant for ethanol and it is non-toxic for food and biological related applications. In all of the examples for this invention the ethanol used was denatured by about 5% (w/w) ethyl acetate.

Series [3] deals with Listeria Monocytogenis ATCC 19115. The experiment in a line: MiniTox bacteriostatic (MIC) test in microtiter plates. The class given is cell-based. To be noted: diluted to the same extent as the blend. The source says: (§1) Methods to determine minimum inhibitory concentrations (MIC) of biocides or bacteriostatic agents that work in processing liquids to inhibit biological growth have been developed and optimized (U.S. Pat. No. 5,206,151). Typically, such MIC determinations involve (a) obtaining a known volume aliquot of the contaminated aqueous system and (b) adding thereto a known amount of an oxidation reduction indicator dye, which indicator dye is capable of reacting with dehydrogenase enzymes produced by the microbiological organisms, and also (c) adding sufficient nutrients capable of accelerating microbiological organism activity, thereby forming a reaction product between reducing enzymes and the oxidation-reduction indicator dye. Multiple aliquots of the indicator dye treated and nutrient treated, aqueous system are transferred to a microtitration plate containing multiple sample wells (d), each well containing but one of the multiple aliquots. (e) Serially diluted amounts of at least one antimicrobial agent is added to at least one column (or row) of these sample wells on the titration plate, provided that a single column (or row) is treated with only one antimicrobial agent, that at least one column (or row) is left untreated to thereby form a treated titration plate. The treated titration plate is incubated at a temperature essentially equivalent to the temperature of the contaminated aqueous system from which the aliquot was originally taken and maintained for a period of time sufficient to develop the change in the indicator dye color by the reaction of the indicator dye with reducing enzymes produced by nutrient acceleration of microbiological metabolism (f). The first change in color in dye relative to the untreated column is noted (g) to determine the minimum inhibitor concentration of antimicrobial agent that inhibits growth of microbiological organism contained in the contaminated aqueous system. Such a method is optimized under the Trademark of MiniToxTM and tests are routinely practiced and results provided by microbiological testing laboratories such as: The MicroStar Lab Ltd located at 130 Erick Street in Crystal Lake, Ill. 60014. […] This solution was kept as is at room temperature and hydrolysis of the ester continued. This solution was serially diluted with broth and media components for the MiniTox tests in microtiter plates. Two bacterial cultures Salmonella Choleraesuis ATCC 10708 and Listeria Monocytogenis ATCC 19115 were used for the studies. Bacteria of the Salmonella species are known pathogens that contaminate meat and vegetable types of food and Listeria species are known to contaminate milk and related foods.

Series [4] deals with Salmonella Choleraesuis ATCC 10708. Described as above. The class given is cell-based. Particulars: diluted to the same extent as the blend.
Description: as §1

Structures are written as SMILES.

As for `CCO` [Ethanol], in series [1], the “SPd (Disperse solubility parameter)” value is on record as 7.7, the “SPh (hydrogen bonding parameter)” value came out at 9.5, the “SPo (Hildebrand solubility parameter)” value was 13.0 and the “SPp (Polar solubility parameter)” value is on record as 4.3. Moreover, in series [1], the “Surface Tension” value was 22.2 mN/m and the Viscosity was found to be 0.43 Cp. Further, the “Percent Removal” value in series [2] turned out to be 20.4%. The “Bacteriostatic activity alone, diluted to the same extent” value (“Bacteriostatic activity alone, diluted” for short) in series [3] is on record as “does not exhibit bacteriostatic activity”. The “Bacteriostatic activity alone, diluted” value in series [4] is given as “does not exhibit bacteriostatic activity”.

Take `CCOC(=O)C(C)O` (stereo not drawn) [Ethyl lactate]: in series [1], the “SPh (hydrogen bonding parameter)” value worked out at 6.1, the “Surface Tension” value is given as 28.6 mN/m and the Viscosity was determined as 2.41 Cp. Further, the “Percent Removal” value in series [2] was 7.3%. Besides, in series [3], the “Bacteriostatic activity alone, diluted” value is recorded as “does not exhibit bacteriostatic activity”. Besides, the “Bacteriostatic activity alone, diluted” value in series [4] is reported as “does not exhibit bacteriostatic activity”.
